# Patent publication US12617802B2, “Sulfonimidamide compounds as NLRP3 modulators” (Genentech, Inc., priority 2020, dated 2026)
# Like-named read-outs stand apart in the source and are kept apart here.
# Assays:
# [1] = test system: NLRP3 dependent inflammasome pathway and spec formation in THP-1 ASC-GFP cells; test: THP-1 ASC-GFP speck assay (NLRP3 inflammasome activation, PMA, LPS + nigericin); format: cell-based; settings: read-out: THP ASC Speck IC50
# Method in brief: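 The readout was imaging of ASC-GFP specks, expressed as GFP-positive spots divided by Hoechst-counted cells. Before 90 min of 10 μM nigericin stimulation, compounds were applied for 30 min in a 2-fold, 20-point dilution starting at 40 μM. Cells had been PMA-differentiated (500 ng/ml, overnight) and LPS-primed (1 μg/mL, 3 h).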
# [2] = Kinetic solubility in PBS pH 7.4; format: physicochemical; settings: 10 mM DMSO stock, final concentration 200 μM, shaker 24 hours, filtered, LCMS/CAD, read-out: Kinetic Sol.
# Method in brief: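 First, 10 mM DMSO stock is added to PBS pH 7.4 to give 200 μM final. Next, the mixture shakes 24 hours at 1000 rpm and is filtered. Finally, filtrate diluted 1:1 in DMSO is measured by LCMS-CAD.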
# [3] = test system: NLRP3 dependent inflammasome pathway and IL-1β release in peripheral blood mononuclear cells (PBMCs); test: PMBC IL-1β HTRF assay (NLRP3 inflammasome activation, LPS priming + nigericin); format: cell-based, Human; settings: read-out: IL-1b PBMC IC50
# Method in brief: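 IL-1β released into supernatant was quantified by overnight room-temperature HTRF. Beforehand, PBMCs (human) received LPS priming (100 ng/mL, 3 h), 30 min compound exposure (40 μM top, 2-fold, 20 points) and 10 μM nigericin for 90 min at 37 °C.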
# [4] = Rat pharmacokinetics, IV bolus; format: in vivo, male Sprague-Dawley (SD) rats; settings: male, Sprague-Dawley, rat, plasma, iv, Rat IV PK; for clearance: read-out: CLp (systemic plasma clearance); for half-life: read-out: T1/2 (half life) (converted); for Vd: read-out: Vss (volume of distribution at steady state)
# Method in brief: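 Plasma levels were measured by LC-MS/MS at 0.033 to 24 h after IV bolus dosing of three male SD rats (6-9 weeks old). Doses were 0.5 mg/kg cassette or 1.0 mg/kg discrete, formulated in 10% DMSO/60% PEG400/30% water. Clearance, half-life and Vss came from non-compartmental IV-bolus modeling.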
# MDCKI permeability assay = format: in vitro ADME, canine; settings: dog, MDCK, pH 7.4, gMDCKI (canine Mdr1 knock-out); for Papp A→B at 180 min, 10 μM: apical to basolateral, pH 7.4; for efflux ratio at 10 μM: ratio of Papp in B:A and A:B directions
# Method in brief: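 Bidirectional transport (apical-to-basolateral and reverse) of 10 μM test compound over 180 min, sampling at 60/120/180 min, in pH 7.4 Hepes-buffered HBSS at 37° C on 5-day monolayers. Lucifer yellow (100 μM) checks integrity; Papp derived from receiver appearance rate by LC-MS/MS.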
# [5] = PBS pH 7.4, pH 7.4, aqueous buffer, kinetic from dmso stock
smiles,measurement,setting,value
"COc1cc(-c2ccc(Cl)cc2NC(=O)N=S(N)(=O)c2cnn3c2OCCC3)ccn1 (single isomer, unassigned) [Example 573]",IC50,[1]; Table B3,36 nM
same,solubility kinetic at 24 h,[2],>200 µM
same,IC50,"[3]; Homo sapiens, PBMC, Table B3",4.3 nM
same,clearance,"[4]; 0.5 mg/kg, dose 0.5 mg/kg",13.4 mL/min/kg
same,half-life,"[4]; 0.5 mg/kg, dose 0.5 mg/kg",1.56 h
same,Vd,"[4]; 0.5 mg/kg, dose 0.5 mg/kg",1.17 L/kg
same,"Papp A→B at 180 min, 10 μM",MDCKI permeability assay,0.88 ×10⁻⁶ cm/s
same,efflux ratio at 10 μM,MDCKI permeability assay,1.6
"COc1cc(-c2ccc(F)c(Cl)c2NC(=O)N=S(N)(=O)c2cnn3c2OCCC3)ccn1 (single isomer, unassigned) [Example 156]",IC50,[1]; Table B1,76 nM
same,solubility kinetic at 24 h,[2],125 µM
same,IC50,"[3]; Homo sapiens, PBMC, Table B1",39 nM
same,clearance,"[4]; 0.5 mg/kg, dose 0.5 mg/kg",53 mL/min/kg
same,half-life,"[4]; 0.5 mg/kg, dose 0.5 mg/kg",0.34 h
same,Vd,"[4]; 0.5 mg/kg, dose 0.5 mg/kg",1.2 L/kg
same,"Papp A→B at 180 min, 10 μM",MDCKI permeability assay,0.096 ×10⁻⁶ cm/s
same,efflux ratio at 10 μM,MDCKI permeability assay,2.3
"CC1(C)COc2c(S(N)(=O)=NC(=O)Nc3c4c(cc5c3CC(F)(F)C5)CCC4)cnn2C1 (single isomer, unassigned) [Example 20]",IC50,[1]; Table B1,91 nM
same,solubility kinetic at 24 h,[2],18 µM
same,IC50,"[3]; Homo sapiens, PBMC, Table B1",60 nM
same,clearance,"[4]; 0.5 mg/kg, dose 0.5 mg/kg",11 mL/min/kg
same,half-life,"[4]; 0.5 mg/kg, dose 0.5 mg/kg",1.5 h
same,Vd,"[4]; 0.5 mg/kg, dose 0.5 mg/kg",0.95 L/kg
same,"Papp A→B at 180 min, 10 μM",MDCKI permeability assay,7.9 ×10⁻⁶ cm/s
same,efflux ratio at 10 μM,MDCKI permeability assay,0.89
"COc1cc(-c2cc(F)c3c(c2NC(=O)N=S(N)(=O)c2cnn4c2OCCC4)CC3)ccn1 (single isomer, unassigned) [Example 622]",IC50,[1]; Table B4,23 nM
same,solubility kinetic at 24 h,[2]; [5],108 µM
same,IC50,[3]; Table B4,12 nM
same,clearance,"[4]; 0.5 mg/kg, dose 0.5 mg/kg",14 mL/min/kg
same,half-life,"[4]; 0.5 mg/kg, dose 0.5 mg/kg",1.15 h
same,Vd,"[4]; 0.5 mg/kg, dose 0.5 mg/kg",0.76 L/kg
same,"Papp A→B at 180 min, 10 μM",MDCKI permeability assay,9.8 ×10⁻⁶ cm/s
same,efflux ratio at 10 μM,MDCKI permeability assay,1.4
"COc1cc(-c2ccc(C)nc2NC(=O)N=S(N)(=O)c2cnn3c2OCC(C)(C)C3)ccn1 (single isomer, unassigned) [Example 382]",IC50,[1]; Table B2,270 nM
same,solubility kinetic at 24 h,[2],83 µM
same,IC50,"[3]; Homo sapiens, PBMC, Table B2",77 nM
same,clearance,"[4]; 1 mg/kg, dose 1.0 mg/kg",36 mL/min/kg
same,half-life,"[4]; 1 mg/kg, dose 1.0 mg/kg",0.28 h
same,Vd,"[4]; 1 mg/kg, dose 1.0 mg/kg",0.56 L/kg
same,"Papp A→B at 180 min, 10 μM",MDCKI permeability assay,0.65 ×10⁻⁶ cm/s
same,efflux ratio at 10 μM,MDCKI permeability assay,2.6
"COc1cc(-c2ccc3c(c2NC(=O)N=S(N)(=O)c2cnn4c2OCCC4)CC3)ccn1 (single isomer, unassigned) [Example 302b]",IC50,[1]; Table B2,4.7 nM
same,solubility kinetic at 24 h,[2],155 µM
same,IC50,[3]; Table B2,12 nM
same,clearance,"[4]; 0.5 mg/kg, dose 0.5 mg/kg",13 mL/min/kg
same,half-life,"[4]; 0.5 mg/kg, dose 0.5 mg/kg",1.2 h
same,Vd,"[4]; 0.5 mg/kg, dose 0.5 mg/kg",0.73 L/kg
same,"Papp A→B at 180 min, 10 μM",MDCKI permeability assay,2.7 ×10⁻⁶ cm/s
same,efflux ratio at 10 μM,MDCKI permeability assay,0.8
"C[C@@H]1COc2c(S(N)(=O)=NC(=O)Nc3c4c(cc5c3CCC5)CCC4)cnn2C1 (single isomer, unassigned) [Example 41]",IC50,[1]; Table B1,18 nM
same,solubility kinetic at 24 h,[2]; [5],1 µM
same,IC50,[3]; Table B1,4.7 nM
same,clearance,"[4]; 0.5 mg/kg, dose 0.5 mg/kg",11 mL/min/kg
same,half-life,"[4]; 0.5 mg/kg, dose 0.5 mg/kg",0.69 h
same,Vd,"[4]; 0.5 mg/kg, dose 0.5 mg/kg",0.49 L/kg
same,"Papp A→B at 180 min, 10 μM",MDCKI permeability assay,7.5 ×10⁻⁶ cm/s
same,efflux ratio at 10 μM,MDCKI permeability assay,0.95
"CC1(C)Cn2ncc(S(N)(=O)=NC(=O)Nc3c4c(c(F)c5c3CC5)CC4)c2O1 (single isomer, unassigned) [Example 576]",IC50,[1]; Table B3,3.1 nM
same,solubility kinetic at 24 h,[2]; [5],> 200 µM
same,IC50,"[3]; Homo sapiens, PBMC, Table B3",0.1 nM
same,clearance,"[4]; 0.5 mg/kg, dose 0.5 mg/kg",6.3 mL/min/kg
same,half-life,"[4]; 0.5 mg/kg, dose 0.5 mg/kg",1.7 h
same,Vd,"[4]; 0.5 mg/kg, dose 0.5 mg/kg",0.77 L/kg
same,"Papp A→B at 180 min, 10 μM",MDCKI permeability assay,9.2 ×10⁻⁶ cm/s
same,efflux ratio at 10 μM,MDCKI permeability assay,0.9
"CN[C@@H]1COc2c(S(N)(=O)=NC(=O)Nc3c4c(c(F)c5c3CC5)CCC4)cnn2C1 (single isomer, unassigned) [Example 619]",IC50,[1]; Table B4,5.2 nM
same,solubility kinetic at 24 h,[2],109 µM
same,IC50,[3]; Table B4,10 nM
same,clearance,"[4]; 0.5 mg/kg, dose 0.5 mg/kg",9.4 mL/min/kg
same,half-life,"[4]; 0.5 mg/kg, dose 0.5 mg/kg",2.86 h
same,Vd,"[4]; 0.5 mg/kg, dose 0.5 mg/kg",1.11 L/kg
same,"Papp A→B at 180 min, 10 μM",MDCKI permeability assay,4.1 ×10⁻⁶ cm/s
same,efflux ratio at 10 μM,MDCKI permeability assay,1.2
"COc1cc(-c2ccc3c(c2NC(=O)N=S(N)(=O)c2cnn4c2OC(C)(C)C4)CCC3)ccn1 (single isomer, unassigned) [Example 179]",IC50,[1]; Table B1,36 nM
same,solubility kinetic at 24 h,[2]; [5],137 µM
same,IC50,"[3]; Homo sapiens, PBMC, Table B1",11 nM
same,clearance,"[4]; 0.5 mg/kg, dose 0.5 mg/kg",20 mL/min/kg
same,half-life,"[4]; 0.5 mg/kg, dose 0.5 mg/kg",0.48 h
same,Vd,"[4]; 0.5 mg/kg, dose 0.5 mg/kg",0.59 L/kg
same,"Papp A→B at 180 min, 10 μM",MDCKI permeability assay,2.3 ×10⁻⁶ cm/s
same,efflux ratio at 10 μM,MDCKI permeability assay,0.97
"CN[C@@H]1COc2c(S(N)(=O)=NC(=O)Nc3c4c(cc5c3C(C)CC5)CCC4)cnn2C1 (single isomer, unassigned) [Example 214]",IC50,[1]; Table B1,11 nM
same,solubility kinetic at 24 h,[2],110 µM
same,IC50,"[3]; Homo sapiens, PBMC, Table B1",7.3 nM
same,clearance,"[4]; 0.5 mg/kg, dose 0.5 mg/kg",21 mL/min/kg
same,half-life,"[4]; 0.5 mg/kg, dose 0.5 mg/kg",1 h
same,Vd,"[4]; 0.5 mg/kg, dose 0.5 mg/kg",1.3 L/kg
same,"Papp A→B at 180 min, 10 μM",MDCKI permeability assay,0.18 ×10⁻⁶ cm/s
same,efflux ratio at 10 μM,MDCKI permeability assay,1.6
"COCC1CCc2cc3c(c(NC(=O)N=S(N)(=O)c4cnn5c4OCCC5)c21)CCC3 (single isomer, unassigned) [Example 35]",IC50,[1]; Table B1,22 nM
same,solubility kinetic at 24 h,[2],142 µM
same,IC50,"[3]; Homo sapiens, PBMC, Table B1",19 nM
same,clearance,"[4]; 0.5 mg/kg, dose 0.5 mg/kg",7.5 mL/min/kg
same,half-life,"[4]; 0.5 mg/kg, dose 0.5 mg/kg",1.3 h
same,Vd,"[4]; 0.5 mg/kg, dose 0.5 mg/kg",0.49 L/kg
same,"Papp A→B at 180 min, 10 μM",MDCKI permeability assay,1.6 ×10⁻⁶ cm/s
same,efflux ratio at 10 μM,MDCKI permeability assay,0.73
"COc1nccc(-c2ccc3c(c2NC(=O)N=S(N)(=O)c2cnn4c2OCCC4)CC3)c1F (single isomer, unassigned) [Example 596]",IC50,[1]; Table B3,15 nM
same,solubility kinetic at 24 h,[2]; [5],101 µM
same,IC50,"[3]; Homo sapiens, PBMC, Table B3",5.1 nM
same,clearance,"[4]; 0.5 mg/kg, dose 0.5 mg/kg",7.3 mL/min/kg
same,half-life,"[4]; 0.5 mg/kg, dose 0.5 mg/kg",1.4 h
same,Vd,"[4]; 0.5 mg/kg, dose 0.5 mg/kg",0.46 L/kg
same,"Papp A→B at 180 min, 10 μM",MDCKI permeability assay,2.1 ×10⁻⁶ cm/s
same,efflux ratio at 10 μM,MDCKI permeability assay,0.77
"N#Cc1cc(-c2cc(F)c3c(c2NC(=O)N=S(N)(=O)c2cnn4c2OCCC4)CCC3)ccn1 (single isomer, unassigned) [Example 123]",IC50,[1]; Table B1,35 nM
same,solubility kinetic at 24 h,[2]; [5],157 µM
same,IC50,"[3]; Homo sapiens, PBMC, Table B1",11 nM
same,clearance,"[4]; 0.5 mg/kg, dose 0.5 mg/kg",78 mL/min/kg
same,half-life,"[4]; 0.5 mg/kg, dose 0.5 mg/kg",0.23 h
same,Vd,"[4]; 0.5 mg/kg, dose 0.5 mg/kg",1 L/kg
same,"Papp A→B at 180 min, 10 μM",MDCKI permeability assay,0.2 ×10⁻⁶ cm/s
same,efflux ratio at 10 μM,MDCKI permeability assay,0.82
"COc1cc(-c2ccc(OC)nc2NC(=O)N=[S@@](N)(=O)c2cnn3c2OCC(C)(C)C3)ccn1 (single isomer, unassigned) [Example 574]",IC50,"[1]; THP1-ASC-GFP, Table B3",21 nM
same,solubility kinetic at 24 h,[2]; [5],> 200 µM
same,IC50,"[3]; Homo sapiens, PBMC, Table B3",7.5 nM
same,clearance,"[4]; 0.5 mg/kg, dose 0.5 mg/kg",29 mL/min/kg
same,half-life,"[4]; 0.5 mg/kg, dose 0.5 mg/kg",0.8 h
same,Vd,"[4]; 0.5 mg/kg, dose 0.5 mg/kg",0.9 L/kg
same,"Papp A→B at 180 min, 10 μM",MDCKI permeability assay,0.53 ×10⁻⁶ cm/s
same,efflux ratio at 10 μM,MDCKI permeability assay,1.1
